Values of other authors as cited in patent publication EP1691200A1, “The use of BNP-type peptides and ANP-type peptides for assessing the risk of suffering from a cardiovascular complication as a consequence of volume overload” (F. HOFFMANN-LA ROCHE AG, priority 2005, dated 2006).

CS(=O)(=O)c1ccc(C2=C(c3ccccc3)C(=O)OC2)cc1 [rofecoxib]
additional cardiovascular incidents (myocardial infarction, stroke) (25 mg rofecoxib compared with a placebo, after 18 months of follow-up): 16 per 1,000 treated patients
blood pressure levels (25 mg rofecoxib compared with a placebo, early post-observation phase): higher blood pressure levels
rise in the rate of serious thromboembolic incidents (APPROVE study, patients without any recognisable cardiovascular risk, led to premature discontinuation): 3.9 times
